The source of these data is ChEMBL document CHEMBL1149916, “Natural products, small molecules, and genetics in tuberculosis drug development” (J Med Chem, 2008).

For experiment [1], the target named is T1, Enoyl-[acyl-carrier-protein] reductase [NADH] (Mycobacterium tuberculosis, UniProt P9WGR1).
T1 sequence (P9WGR1 whole entry): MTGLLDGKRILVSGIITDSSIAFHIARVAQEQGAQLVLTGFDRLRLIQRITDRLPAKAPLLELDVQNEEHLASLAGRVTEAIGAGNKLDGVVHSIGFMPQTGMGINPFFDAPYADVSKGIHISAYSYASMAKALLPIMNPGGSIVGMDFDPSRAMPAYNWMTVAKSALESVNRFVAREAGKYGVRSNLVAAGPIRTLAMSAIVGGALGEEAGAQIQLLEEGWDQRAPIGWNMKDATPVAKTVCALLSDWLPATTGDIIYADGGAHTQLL
In words: Inhibition of Mycobacterium tuberculosis Enoyl-[acyl-carrier-protein] reductase.

Experiment [2] is described as follows: Inhibition of Mycobacterium tuberculosis acyl-CoA corboxylase corboxyltransferase domain 5.

`CCCCCCCCc1ccc(Oc2ccccc2)c(O)c1`: the inhibition constant Ki in experiment [1] was determined as 0.001 µM. As to `Nc1ccc(/N=N/c2ccc(-c3ccc(O)cc3)cc2)c2ccc(S(=O)(=O)O)cc12`, the inhibition constant (Ki) in experiment [2] worked out at 13 µM.

Usually Ki stands for the dissociation constant of the complex between target and ligand, obtained from inhibition or displacement. A low value points to higher affinity.
